Measured values from patent publication US9290496B2, “Purine derivatives” (PFIZER INC., priority 2013, dated 2016).
pIC50: −log10 of the molar value.

Tests used:
Assay type in all cases: cell-based
EGFR del/T790M (PC9-DRH) = molecular target: T1, EGFR del/T790M (PC9-DRH) (Homo sapiens, UniProt P00533, DEL746-750/T790M); experiment: pEGFR Y1068 ELISA assay, PC9-DRH cells; conditions: inhibition of phosphorylation of EGFR at Tyr1068; PC9-DRH cells (dacomitinib resistant); 2 hr compound incubation
T1 construct: detects endogenous levels of phospho-EGF Receptor (Tyr1068) protein; endogenous in cells; host or cells: PC9-DRH (dacomitinib-resistant derivative of PC9, generated in house)
T1 sequence (P00533 with tags, fused parts or gaps DEL746-750/T790M): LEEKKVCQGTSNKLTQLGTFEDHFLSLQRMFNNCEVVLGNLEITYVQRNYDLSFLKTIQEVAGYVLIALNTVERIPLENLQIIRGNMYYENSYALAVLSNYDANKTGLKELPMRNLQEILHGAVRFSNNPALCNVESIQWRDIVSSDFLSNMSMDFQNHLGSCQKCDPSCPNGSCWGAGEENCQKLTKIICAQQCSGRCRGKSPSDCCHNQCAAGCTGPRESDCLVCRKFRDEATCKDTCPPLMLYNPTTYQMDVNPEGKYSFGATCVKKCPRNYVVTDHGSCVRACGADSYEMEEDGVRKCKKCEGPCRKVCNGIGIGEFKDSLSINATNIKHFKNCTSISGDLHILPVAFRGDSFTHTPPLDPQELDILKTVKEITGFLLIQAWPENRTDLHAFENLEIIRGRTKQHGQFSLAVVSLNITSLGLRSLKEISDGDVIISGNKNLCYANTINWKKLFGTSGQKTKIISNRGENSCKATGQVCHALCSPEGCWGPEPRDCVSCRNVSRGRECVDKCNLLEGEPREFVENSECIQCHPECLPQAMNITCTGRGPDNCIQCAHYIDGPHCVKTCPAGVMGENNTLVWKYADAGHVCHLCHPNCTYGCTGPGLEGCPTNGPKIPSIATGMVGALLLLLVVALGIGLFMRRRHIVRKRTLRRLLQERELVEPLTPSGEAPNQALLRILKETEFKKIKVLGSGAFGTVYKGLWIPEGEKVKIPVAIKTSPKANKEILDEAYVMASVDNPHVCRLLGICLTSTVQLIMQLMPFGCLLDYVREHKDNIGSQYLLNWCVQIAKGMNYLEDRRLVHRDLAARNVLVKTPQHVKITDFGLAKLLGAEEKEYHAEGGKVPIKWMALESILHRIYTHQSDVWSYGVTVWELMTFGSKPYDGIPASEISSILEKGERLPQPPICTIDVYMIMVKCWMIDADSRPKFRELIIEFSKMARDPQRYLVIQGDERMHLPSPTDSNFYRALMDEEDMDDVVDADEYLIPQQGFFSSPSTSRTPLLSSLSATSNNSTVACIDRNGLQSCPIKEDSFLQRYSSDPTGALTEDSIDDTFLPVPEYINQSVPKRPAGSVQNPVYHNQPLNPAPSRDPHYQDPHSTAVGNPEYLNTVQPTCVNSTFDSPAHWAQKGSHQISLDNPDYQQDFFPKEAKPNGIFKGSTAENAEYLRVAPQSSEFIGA
Description: The PathScan® Phospho-EGF Receptor (Tyr1068) Sandwich ELISA Kit is a solid phase sandwich enzyme-linked immunosorbent assay (ELISA) that detects endogenous levels of phospho-EGF Receptor (Tyr1068) protein. […] NCI-H3255 cells were licensed from NCI. […] All cells were cultured according to ATCC recommendations. A549, NCI-H1975, PC9, and NCI-H3255 cells were grown in RPMI media (Invitrogen, Carlsbad, Calif.) supplemented with 10% FBS (Sigma, St Louis, Mo.), and with 1% Penn/Strep (Invitrogen).
Each compound was prepared as a DMSO stock solution (10 mM). Compounds were tested in duplicate on each plate, with an 11-point serial dilution curve (1:3 dilution). Compound treatment (50 μL) was added from the compound dilution plate to the cell plate. […] Plates were then incubated for 2 hr at 37° C., 5% CO2. […] The wash was then flicked off and ice-cold lysis buffer was added to the cells (50 μL/well). The plate was shaken for 20-30 min at 4° C. to completely lyse the cells. Sample diluent (50 μL/well) was added to the ELISA plate, and the lysate (50 μL) was diluted into the sample diluent in each well of the ELISA plate. Plates were sealed and incubated overnight at 4° C. with shaking. The next day, wells were washed four times with 1× Wash Buffer; plates were taped on lint-free paper after the final wash prior to adding Add Detection Antibody (green, 100 μL/well) to each well and incubating for 1 hr at 37° C. After incubation, wells were washed as described. HRP-Linked secondary antibody (red, 100 μL/well) was added to each well and incubated for 30 min at 37° C. After incubation, the wells were washed as described. TMB Substrate (100 μL/well) was added to each well and the plate incubated for 10 min at 37° C. or 30 min at rt maximum. Stop Solution (100 μL/well) was added to each well at the end of the incubation and plates were shaken gently for a few seconds. […] Data were analyzed using a four-parameter fit in Microsoft Excel.

[1] = molecular target: T2, EGFR wildtype, endogenous (A549) (Homo sapiens, UniProt P00533); experiment: pEGFR Y1068 ELISA assay, A549 cells; conditions: inhibition of phosphorylation of EGFR at Tyr1068; A549 NSCLC cells; 2 hr compound incubation, then stimulated 10 min with EGF (40 ng/mL)
T2 construct: A549 (EGFR wildtype, endogenous); host or cells: A549 (stimulated with EGF)
T2 sequence (P00533 25-1210): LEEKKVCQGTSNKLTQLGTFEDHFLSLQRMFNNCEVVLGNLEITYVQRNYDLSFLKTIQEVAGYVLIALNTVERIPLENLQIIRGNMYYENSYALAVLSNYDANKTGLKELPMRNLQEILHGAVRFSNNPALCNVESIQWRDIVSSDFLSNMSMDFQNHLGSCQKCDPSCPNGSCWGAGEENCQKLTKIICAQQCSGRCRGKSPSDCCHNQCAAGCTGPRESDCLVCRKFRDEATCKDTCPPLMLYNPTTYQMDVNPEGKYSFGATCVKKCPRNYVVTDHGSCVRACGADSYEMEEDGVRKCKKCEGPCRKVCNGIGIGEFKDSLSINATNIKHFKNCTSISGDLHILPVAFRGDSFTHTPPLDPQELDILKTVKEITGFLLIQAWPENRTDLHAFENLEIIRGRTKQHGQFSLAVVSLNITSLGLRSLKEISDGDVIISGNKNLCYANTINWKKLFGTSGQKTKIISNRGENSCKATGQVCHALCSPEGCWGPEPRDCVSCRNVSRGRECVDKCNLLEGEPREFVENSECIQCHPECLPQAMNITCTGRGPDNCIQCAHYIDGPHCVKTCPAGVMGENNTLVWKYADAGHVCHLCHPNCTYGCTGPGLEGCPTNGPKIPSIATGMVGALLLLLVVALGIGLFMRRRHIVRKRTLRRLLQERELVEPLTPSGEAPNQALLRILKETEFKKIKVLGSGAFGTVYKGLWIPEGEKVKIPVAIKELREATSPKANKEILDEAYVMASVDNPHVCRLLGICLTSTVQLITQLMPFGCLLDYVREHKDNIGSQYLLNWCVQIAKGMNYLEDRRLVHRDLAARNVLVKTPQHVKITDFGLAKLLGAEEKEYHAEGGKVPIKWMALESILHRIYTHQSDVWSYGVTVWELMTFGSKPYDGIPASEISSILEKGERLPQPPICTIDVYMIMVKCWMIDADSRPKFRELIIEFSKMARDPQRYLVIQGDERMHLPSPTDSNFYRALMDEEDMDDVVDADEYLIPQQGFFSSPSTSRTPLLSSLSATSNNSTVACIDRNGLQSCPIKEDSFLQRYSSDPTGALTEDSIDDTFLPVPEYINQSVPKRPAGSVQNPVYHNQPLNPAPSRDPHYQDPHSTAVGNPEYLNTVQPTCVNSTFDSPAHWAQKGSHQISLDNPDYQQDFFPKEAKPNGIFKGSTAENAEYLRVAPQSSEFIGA
Description: (§1) Phosphorylation of EGFR at Y1068 was measured by PathScan® Phospho-EGF Receptor (Try1068) Sandwich ELISA kit (#7240, Cell Signaling Technology®, Danvers, Mass.). The PathScan® Phospho-EGF Receptor (Tyr1068) Sandwich ELISA Kit is a solid phase sandwich enzyme-linked immunosorbent assay (ELISA) that detects endogenous levels of phospho-EGF Receptor (Tyr1068) protein. […] All cells were cultured according to ATCC recommendations. A549, NCI-H1975, PC9, and NCI-H3255 cells were grown in RPMI media (Invitrogen, Carlsbad, Calif.) supplemented with 10% FBS (Sigma, St Louis, Mo.), and with 1% Penn/Strep (Invitrogen). PC9-DRH cells were grown in RPMI with 10% FBS and 1 μM dacomitinib.
(§2) Cells were plated at 40,000/well in complete culture media (50 μL/well) on the bottom of clear tissue culture treated microtiter plates (#3595, Corning Inc, Corning, N.Y.) and allowed to adhere overnight at 37° C., 5% CO2. The following day, compound dilution plates were prepared in 96 well clear V-bottom 0.5 mL polypropylene block plates (#3956, Corning, Inc). Each compound was prepared as a DMSO stock solution (10 mM). Compounds were tested in duplicate on each plate, with an 11-point serial dilution curve (1:3 dilution). Compound treatment (50 μL) was added from the compound dilution plate to the cell plate. […] Plates were then incubated for 2 hr at 37° C., 5% CO2. For A549 (EGFR wildtype) assay, cells were plated in full-serum (10%) media for 24 hr prior to compound treatment; cells were treated in full serum media as described and then stimulated for 10 min with EGF (40 ng/mL/starvation media, Invitrogen). Immediately prior to the end of the incubation, ice-cold lysis buffer was prepared (1× Cell Lysis Buffer (#9803, Cell Signaling Technology), 1 mM sodium orthovanadate (Na3VO4, #96508, Sigma), 1 mM phenylmethanesulfonyl fluoride (PMSF, 52332, CalBiochem/EMD Chemicals), complete Mini EDTA-free Protease Inhibitor Cocktail Tablet (1 tablet/10 mL, #11836170001, Roche, Indianapolis, Ind.), and PhosSTOP Phosphatase Inhibitor Cocktail Tablet (1 tablet/10 mL, #04906837001, Roche) in pure water. At the end of 2 hr, media was flicked off and cells were washed once with ice-cold 1 mM Na3VO4 in PBS (100 μL/well, Invitrogen). The wash was then flicked off and ice-cold lysis buffer was added to the cells (50 μL/well). The plate was shaken for 20-30 min at 4° C. to completely lyse the cells. Sample diluent (50 μL/well) was added to the ELISA plate, and the lysate (50 μL) was diluted into the sample diluent in each well of the ELISA plate. Plates were sealed and incubated overnight at 4° C. with shaking. The next day, wells were washed four times with 1× Wash Buffer; plates were taped on lint-free paper after the final wash prior to adding Add Detection Antibody (green, 100 μL/well) to each well and incubating for 1 hr at 37° C. After incubation, wells were washed as described. HRP-Linked secondary antibody (red, 100 μL/well) was added to each well and incubated for 30 min at 37° C. After incubation, the wells were washed as described. TMB Substrate (100 μL/well) was added to each well and the plate incubated for 10 min at 37° C. or 30 min at rt maximum. Stop Solution (100 μL/well) was added to each well at the end of the incubation and plates were shaken gently for a few seconds. Absorbance was read at 450 nm within 30 min after addition of Stop Solution on a PerkinElmer EnVision Excite Multilabel Reader Method for Absorbance or on a Molecular Devices SpectraMax^384 Reader for absorbance. Data were analyzed using a four-parameter fit in Microsoft Excel.

[2] = molecular target: T3, EGFR L858R+T790M, endogenous (NCI-H1975) (Homo sapiens, UniProt P00533, L858R/T790M); experiment: pEGFR Y1068 ELISA assay, NCI-H1975 cells; conditions: inhibition of phosphorylation of EGFR at Tyr1068; NCI-H1975 NSCLC cells; 2 hr compound incubation
T3 construct: NCI-H1975 (EGFR L858R+T790M, endogenous); host or cells: NCI-H1975
T3 sequence (P00533 25-1210 T790M/L858R): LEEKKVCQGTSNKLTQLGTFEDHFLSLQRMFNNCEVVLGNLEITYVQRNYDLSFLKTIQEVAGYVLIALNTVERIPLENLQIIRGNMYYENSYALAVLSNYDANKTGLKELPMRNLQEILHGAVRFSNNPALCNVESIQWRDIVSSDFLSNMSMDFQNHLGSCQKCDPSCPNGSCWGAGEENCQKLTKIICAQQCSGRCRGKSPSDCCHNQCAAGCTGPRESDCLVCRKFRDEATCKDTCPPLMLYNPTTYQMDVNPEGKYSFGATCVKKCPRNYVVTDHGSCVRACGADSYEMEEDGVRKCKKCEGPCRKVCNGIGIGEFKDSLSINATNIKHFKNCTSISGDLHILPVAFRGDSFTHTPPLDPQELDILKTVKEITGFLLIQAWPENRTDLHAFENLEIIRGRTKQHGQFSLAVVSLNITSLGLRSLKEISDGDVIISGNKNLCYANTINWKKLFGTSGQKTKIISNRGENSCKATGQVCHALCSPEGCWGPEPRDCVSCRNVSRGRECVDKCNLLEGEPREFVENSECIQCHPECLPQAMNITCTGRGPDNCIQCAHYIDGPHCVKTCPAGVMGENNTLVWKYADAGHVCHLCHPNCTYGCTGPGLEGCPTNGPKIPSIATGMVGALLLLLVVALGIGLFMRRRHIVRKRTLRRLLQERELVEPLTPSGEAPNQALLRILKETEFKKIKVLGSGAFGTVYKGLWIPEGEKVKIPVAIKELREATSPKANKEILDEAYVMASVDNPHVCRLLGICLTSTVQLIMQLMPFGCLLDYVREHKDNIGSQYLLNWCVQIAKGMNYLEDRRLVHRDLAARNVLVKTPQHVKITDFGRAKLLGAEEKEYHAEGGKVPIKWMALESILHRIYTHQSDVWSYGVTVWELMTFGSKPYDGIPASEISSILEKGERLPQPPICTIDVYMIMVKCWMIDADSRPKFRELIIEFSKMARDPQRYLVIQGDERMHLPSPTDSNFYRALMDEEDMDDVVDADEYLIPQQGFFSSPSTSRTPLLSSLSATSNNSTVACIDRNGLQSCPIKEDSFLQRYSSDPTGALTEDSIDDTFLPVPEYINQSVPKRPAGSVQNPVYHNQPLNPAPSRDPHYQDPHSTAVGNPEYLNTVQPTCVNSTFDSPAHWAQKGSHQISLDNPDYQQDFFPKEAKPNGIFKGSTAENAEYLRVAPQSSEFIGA
Description: as §1, §2

Compound	pIC50 (EGFR del/T790M (PC9-DRH))	pIC50 [1]	pIC50 [2]
C=CC(=O)NC1(C)CN(c2nc(Nc3ccc(N4CCN(C)CC4)cc3)c3ncn(C(C)C)c3n2)C1 [Example 12, N-(1-(9-isopropyl-6-((4-(4-methylpiperazin-1-yl)phenyl)amino)-9H-purin-2-yl)-3-methylazetidin-3-yl)acrylamide]	8.00	6.85	8.22
C=CC(=O)N1C[C@@H]2CN(c3nc(Nc4cnn(C)c4C)c4ncn(C(C)C)c4n3)C[C@@H]2C1 [Example 17, 1-((cis)-5-(6-((1,5-dimethyl-1H-pyrazol-4-yl)amino)-9-isopropyl-9H-purin-2-yl)hexahydropyrrolo[3,4-c]pyrrol-2(1H)-yl)prop-2-en-1-one]	5.60	≤ 5.00	6.33
C=CC(=O)N[C@H]1CCN(c2nc(Nc3cnn(CCN(C)C)c3)c3ncn(C(C)C)c3n2)C1 [Example 43, (S)-N-(1-(6-((1-(2-(dimethylamino)ethyl)-1H-pyrazol-4-yl)amino)-9-isopropyl-9H -purin-2-yl)pyrrolidin-3-yl)acrylamide]	7.74	5.83	7.13
C=CC(=O)N[C@@H]1CN(c2nc(Nc3ccc(N4CCN(C)CC4)cc3)c3ncn(C(C)(C)C)c3n2)C[C@H]1F [Example 52, N-((3R,4R)-1-(9-(tert-butyl)-6-((4-(4-methylpiperazin-1-yl)phenyl)amino)-9H-purin-2-yl)-4-fluoropyrrolidin-3-yl)acrylamide]	8.22	≤ 5.00	6.13
C=CC(=O)N1C[C@@H](F)[C@H](Nc2nc(Nc3ccc(N4CCN(C)CC4)cc3)c3ncn(C(C)C)c3n2)C1 (relative stereo) [Example 19, 1-((trans)-3-fluoro-4-((9-isopropyl-6-((4-(4-methylpiperazin-1-yl)phenyl)amino) -9H-purin-2-yl)amino)pyrrolidin-1-yl)prop-2-en-1-one]	7.60	6.71	8.00
C=CC(=O)N[C@H]1CCN(c2nc(Nc3ccc(N4CCN(C(C)C)CC4)cc3)c3ncn(C(C)C)c3n2)C1 [Example 36, (S)-N-(1-(9-isopropyl-6-((4-(4-isopropylpiperazin-1-yl)phenyl)amino)-9H-purin-2-yl)pyrrolidin-3-yl)acrylamide]	8.05	6.62	8.10
C=CC(=O)N[C@@H]1CN(c2nc(Nc3cn(C4CCN(C)C4)nc3C)c3ncn(CC)c3n2)C[C@H]1F (stereo partly drawn) [Example 80, N-((3R,4R)-1-(9-ethyl-6-((3-methyl-1-(1-methylpyrrolidin-3-yl)-1H-pyrazol-4-yl)amino)-9H-purin-2-yl)-4-fluoropyrrolidin-3-yl)acrylamide]	8.00	6.37	7.66
C=CC(=O)N[C@H]1CCN(c2nc(Nc3ccc(N4CCN(C)CC4)cc3)c3ncn(C(C)(C)C)c3n2)C1 [Example 9, (S)-N-(1-(9-(tert-butyl)-6-((4-(4-methylpiperazin-1-yl)phenyl)amino)-9H-purin-2-yl)pyrrolidin-3-yl)acrylamide]	7.59	5.56	7.49
C=CC(=O)N1C[C@@H]2CN(c3nc(Nc4cnn(C)c4)c4ncn(CC)c4n3)C[C@@H]2C1 [Example 16, 1-((cis)-5-(9-ethyl-6-((1-methyl-1H-pyrazol-4-yl)amino)-9H-purin-2-yl)hexahydropyrrolo[3,4-c]pyrrol-2(1H)-yl)prop-2-en-1-one]	7.04	6.29	7.06
C=CC(=O)NC1(C)CN(c2nc(Nc3cnn(CCN(C)C)c3)c3ncn(C(C)C)c3n2)C1 [Example 42, N-(1-(6-((1-(2-(dimethylamino)ethyl)-1H-pyrazol-4-yl)amino)-9-isopropyl-9H-purin-2-yl)-3-methylazetidin-3-yl)acrylamide]	7.42	5.87	7.59
C=CC(=O)N[C@@H]1CN(c2nc(Nc3ccc(N4CCC(N(C)C)CC4)cc3OC)c3ncn(C(C)C)c3n2)C[C@H]1F [Example 90, N-((3R,4R)-1-(6-((4-(4-(dimethylamino)piperidin-1-yl)-2-methoxyphenyl)amino)-9-isopropyl-9H-purin-2-yl)-4-fluoropyrrolidin-3-yl)acrylamide]	8.05	–	–
C=CC(=O)N1C[C@@H]2CN(c3nc(Nc4ccc(N5CCN(C)CC5)cc4)c4ncn(C(C)(C)C)c4n3)C[C@@H]2C1 [Example 18, 1-((cis)-5-(9-(tert-butyl)-6-((4-(4-methylpiperazin-1-yl)phenyl)amino)-9H-purin-2-yl)hexahydropyrrolo[3,4-c]pyrrol-2(1H)-yl)prop-2-en-1-one]	7.57	5.34	7.49
C=CC(=O)N1CCC[C@@H](Oc2nc(Nc3cnn(C)c3)c3ncn(C(C)C)c3n2)C1 [Example 57, (R)-1-(3((9-isopropyl-6-((1-methyl-1H-pyrazol-4-yl)amino)-9H-purin-2-yl)oxy)piperidin-1-yl)prop-2-en-1-one]	7.36	5.52	7.05
C=CC(=O)NC1(C)CN(c2nc(Nc3cnn(C4CCN(C)C4)c3)c3ncn(C(C)C)c3n2)C1 (stereo not shown) [Example 44, N-(1-(9-isopropyl-6-((1-(1-methylpyrrolidin-3-yl)-1H-pyrazol-4-yl)amino)-9H-purin-2-yl)-3-methylazetidin-3-yl)acrylamide]	8.15	5.94	7.62
C=CC(=O)Nc1cccc(Oc2nc(Nc3ccc(N4CCN(C)CC4)cc3)c3ncn(C(C)C)c3n2)c1 [Example 22, N-(3-((9-isopropyl-6-((4-(4-methylpiperazin-1-yl)phenyl)amino)-9H-purin-2-yl)oxy)phenyl)acrylamide]	8.05	7.41	8.22
C=CC(=O)N[C@@H]1CN(c2nc(Nc3cnn(CCN(C)C)c3)c3ncn(C(C)(C)C)c3n2)C[C@H]1F [Example 68, N-((3R,4R)-1-(9-(tert-butyl)-6-((1-(2-(dimethylamino)ethyl)-1H-pyrazol-4-yl)amino)-9H-purin-2-yl)-4-fluoropyrrolidin-3-yl)acrylamide]	–	6.15	7.74

Continued, values first:

pIC50 (EGFR del/T790M (PC9-DRH))	pIC50 [1]	pIC50 [2]	Compound
8.70	6.40	7.52	C=CC(=O)N[C@@H]1CN(c2nc(Nc3cn(C)nc3C)c3ncn(CC)c3n2)C[C@H]1F [Example 76, N-((3R,4R)-1-(6-((1,3-dimethyl-1H-pyrazol-4-yl)amino)-9-ethyl-9H-purin-2-yl)-4-fluoropyrrolidin-3-yl)acrylamide]
8.70	6.92	7.96	C=CC(=O)N1C[C@@H](F)[C@H](Nc2nc(Nc3ccc(N4CCN(C)CC4)cc3)c3ncn(C)c3n2)C1 (relative stereo) [Example 20, 1-((trans)-3-fluoro-4-((9-methyl-6-((4-(4-methylpiperazin-1-yl)phenyl)amino)-9H -purin-2-yl)amino)pyrrolidin-1-yl)prop-2-en-1-one]
8.22	6.09	7.31	C=CC(=O)N1C[C@@H]2CN(c3nc(Nc4cnn(C)c4)c4ncn(C(C)C)c4n3)C[C@@H]2C1 [Example 25, 1-((cis)-5-(9-isopropyl-6-((1-methyl-1H-pyrazol-4-yl)amino)-9H-purin-2-yl)hexahydropyrrolo[3,4-c]pyrrol-2(1H)-yl)prop-2-en-1-one]
8.22	6.59	7.82	C=CC(=O)N[C@H]1CCN(c2nc(Nc3ccc(N4CCN(C)CC4)cc3)c3ncn(C)c3n2)C1 [Example 38, (S)-N-(1-(9-methyl-6-((4-(4-methylpiperazin-1-yl)phenyl)amino)-9H-purin-2-yl)pyrrolidin-3-yl)acrylamide]
8.40	6.49	7.74	C=CC(=O)N1C[C@@H]2CN(c3nc(Nc4ccc(N5CCN(C)CC5)cc4)c4ncn(C)c4n3)C[C@@H]2C1 [Example 33, 1-((cis)-5-(9-methyl-6-((4-(4-methylpiperazin-1-yl)phenyl)amino)-9H-purin-2-yl)hexahydropyrrolo[3,4-c]pyrrol-2(1H)-yl)prop-2-en-1-one]
8.70	6.30	6.97	C=CC(=O)NC1(C)CN(c2nc(Nc3cnn(C)c3)c3ncn(CC)c3n2)C1 [Example 56, N-(1-(9-ethyl-6-((1-methyl-1H-pyrazol-4-yl)amino)-9H-purin-2-yl)-3-methylazetidin-3-yl)acrylamide]
8.70	7.31	8.30	C=CC(=O)N[C@@H]1CN(c2nc(Nc3cnn(C)c3)c3ncn(C(C)C)c3n2)CC1(F)F [Example 74, (R)—N-(4,4-difluoro-1-(9-isopropyl-6-((1-methyl-1H-pyrazol-4-yl)amino)-9H-purin-2-yl)pyrrolidin-3-yl)acrylamide]
8.30	7.13	8.10	C=CC(=O)N[C@H]1CCN(c2nc(Nc3ccc(N4CCN(CC)CC4)cc3)c3ncn(C(C)C)c3n2)C1 [Example 40, (S)-N-(1-(6-((4-(4-ethylpiperazin-1-yl)phenyl)amino)-9-isopropyl-9H-purin-2-yl)pyrrolidin-3-yl)acrylamide]
8.52	–	–	C=CC(=O)N[C@@H]1CN(c2nc(Nc3ccc(N4CCC(N(C)C)CC4)cc3)c3ncn(C(C)C)c3n2)C[C@H]1F [Example 89, N-((3R,4R)-1-(6-((4-(4-(dimethylamino)piperidin-1-yl)phenyl)amino)-9-isopropyl-9H-purin-2-yl)-4-fluoropyrrolidin-3-yl)acrylamide]
